Columns and labels:
[1] = target: T1, ERβ (Homo sapiens, UniProt Q92731); test: TNF-RE tkLuc repression in U2OS cells, ERβ; format: cell-based; parameters: expressed in transfected cells
[2] = target: T1, ERβ; details: in the presence of ERβ
[3] = system: TNF-RE tkLuc; test: Antiestrogen effect on TNF-RE tkLuc (Example 2); format: cell-based, human; details: for effect on the repression induced by E2: TNF-RE tkLuc; for activation of TNF-RE tkLuc: antiestrogens, in contrast to E2
[4] = target: T1, ERβ; test: ERE-tk-Luc luciferase assay in U2OS cells, ERβ; format: cell-based; parameters: expressed in transfected cells; host or cells: U2OS (human osteosarcoma), electroporated; details: competition with herb 6, U2OS cells, FIG. 6
[5] = system: postmenopausal women who have osteoporosis; details: median follow-up of 40 months, cited from earlier work
[6] = system: women considered to be at high risk for breast cancer; details: cited from earlier work
[7] = system: women with estrogen receptor-positive breast cancer; details: five years of therapy; cited from earlier work

T1 sequence (Q92731 whole entry): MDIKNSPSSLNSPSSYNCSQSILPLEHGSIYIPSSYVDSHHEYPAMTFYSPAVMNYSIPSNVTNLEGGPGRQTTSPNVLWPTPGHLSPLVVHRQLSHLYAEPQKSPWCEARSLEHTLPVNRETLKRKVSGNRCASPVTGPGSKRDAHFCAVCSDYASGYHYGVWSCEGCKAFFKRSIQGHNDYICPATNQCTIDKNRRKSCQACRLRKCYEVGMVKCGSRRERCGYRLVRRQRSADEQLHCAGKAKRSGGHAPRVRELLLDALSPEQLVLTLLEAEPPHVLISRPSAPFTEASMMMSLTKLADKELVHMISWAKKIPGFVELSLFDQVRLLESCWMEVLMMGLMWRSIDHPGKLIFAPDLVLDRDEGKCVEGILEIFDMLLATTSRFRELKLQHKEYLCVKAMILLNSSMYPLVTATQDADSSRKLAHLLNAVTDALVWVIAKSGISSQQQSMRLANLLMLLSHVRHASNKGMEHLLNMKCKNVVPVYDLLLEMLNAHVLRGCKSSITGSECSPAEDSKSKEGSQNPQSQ

| SMILES | repression of TNF-α activation of TNF-RE [1] [%] | repression of TNF-α activation of TNF-RE tkLuc [2] | effect on the repression induced by E2 [3] | activation of TNF-RE tkLuc [3] [fold] | effect on herb 6 stimulation of the ERE with ERβ [4] | cases of breast cancer in the treatment group ([5]; among 5129 women) [cases] | RR of breast cancer versus placebo [5] | reduction of the risk of primary invasive breast cancer [6] [%] | reduction of mortality from breast cancer [7] [%] | reduction of the risk of recurrences [7] [%] |
| --- | --- | --- | --- | --- | --- | --- | --- | --- | --- | --- |
| C[C@]12CC[C@@H]3c4ccc(O)cc4CC[C@H]3[C@@H]1CC[C@@H]2O [E2, estradiol] | 100 | 60-80% | – | – | – | – | – | – | – | – |
| C[C@]12CC[C@@H]3c4ccc(O)cc4C[C@@H](CCCCCCCCC[S+]([O-])CCCC(F)(F)C(F)(F)F)[C@H]3[C@@H]1CC[C@@H]2O (some centres unmarked) [ICI 182, 780] | – | – | abolished the repression induced by E2 | 2 | – | – | – | – | – | – |
| O=C(c1ccc(OCCN2CCCCC2)cc1)c1c(-c2ccc(O)cc2)sc2cc(O)ccc12 [raloxifene] | – | – | abolished the repression induced by E2 | 2 | inhibited | 13 | 0.24 | – | – | – |
| CC/C(=C(\c1ccccc1)c1ccc(OCCN(C)C)cc1)c1ccccc1 [tamoxifen] | – | – | abolished the repression induced by E2 | 2 | – | – | – | 49 | 22 | 42 |

Source: US9132161B2
